Columns and labels:
Experiment in all cases: Test D controlled growth environment herbicide test, pre- and postemergence
Assay type in all cases: in vivo
[1] = tested on: barley, winter (winter barley, Hordeum vulgare)
In short: (§1)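 Rating is visual, 0–100 scale (100 = complete control), made against untreated plants 14–21 d after treatment in controlled growth conditions. Postemergence sprays went onto 1- to 4-leaf plants in peat medium; preemergence sprays onto silt loam after sowing; formulation included a surfactant.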

[2] = tested on: wheat, spring (spring wheat, Triticum aestivum)
In short: as §1

[3] = tested on: barley, spring (spring barley, Hordeum vulgare)
In short: as §1

[4] = tested on: oilseed rape (Brassica napus)
In short: as §1

[5] = tested on: galium (catchweed bedstraw, Galium aparine)
In short: as §1

[6] = tested on: canarygrass (Phalaris minor)
In short: as §1

[7] = tested on: bluegrass (annual bluegrass, Poa annua)
In short: as §1

[8] = tested on: foxtail, green (green foxtail, Setaria viridis)
In short: as §1

[9] = tested on: oat, wild (wild oat, Avena fatua)
In short: as §1

[10] = tested on: pigweed (Amaranthus retroflexus)
In short: as §1

[11] = tested on: field poppy (Papaver rhoeas)
In short: as §1

[12] = tested on: buckwheat, wild (wild buckwheat, Polygonum convolvulus)
In short: as §1

[13] = tested on: mustard, wild (wild mustard, Sinapis arvensis)
In short: as §1

[14] = Postemergence, 31 g ai/ha, scale 0 to 100 (0 no effect, 100 complete control)
[15] = Postemergence, 125 g ai/ha, visual rating on scale 0 (no effect) to 100 (complete control), 14 to 21 d
[16] = Postemergence, 250 g ai/ha, scale 0 to 100 (0 no effect, 100 complete control)
[17] = Preemergence, 62 g ai/ha, scale 0 to 100 (0 no effect, 100 complete control)
[18] = Preemergence, 125 g ai/ha, scale 0 to 100 (0 no effect, 100 complete control)
[19] = Preemergence, 250 g ai/ha, scale 0 to 100, 0 no effect, 100 complete control
[20] = postemergence, 62 g ai/ha, scale 0 to 100, 0 no effect, 100 complete control

How did the “Barley, Winter plant response rating” value [1, 14] turn out when `CC(=O)Oc1c(C)nn(C)c(=O)c1-c1c(C)sc2ccc(Cl)cc12` [Compound 108] was run?
Its value is 5.

What about the “Plant response rating, Barley, Winter” value [1, 15] of the same molecule?
Its value is 10.

And the “Plant response rating, Barley, Winter” value [1, 16]?
Its value is 15.

And the “Plant response rating (scale of 0 to 100), Barley, Winter” value ([1]; Preemergence, 31 g ai/ha)?
The value was 0.

And the “Plant response rating, Barley, Winter” value [1, 17]?
The value was 0.

And the “Plant response rating, Barley, Winter” value [1, 18]?
Its value is 10.

And the “Plant response rating, Barley, Winter” value [1, 19]?
The value was 20.

And the “Plant response rating, Barley, Winter” value [1, 20]?
Its value is 5.

What about the “Wheat, Spring plant response rating” value [2, 14] of the same molecule?
Its value is 15.

What about the “Plant response rating, Wheat, Spring” value [2, 15] of the same molecule?
The value was 20.

What about the “Plant response rating, Wheat, Spring” value [2, 16] of the same molecule?
The value was 30.

What about the “Plant response rating (scale of 0 to 100), Wheat, Spring” value ([2]; Preemergence, 31 g ai/ha) of the same molecule?
Its value is 0.

What about the “Plant response rating (scale of 0 to 100), Wheat, Spring” value ([2]; Preemergence, 62 g ai/ha) of the same molecule?
The value was 20.

What about the “Plant response rating, Wheat, Spring” value [2, 18] of the same molecule?
The value was 25.

And the “Plant response rating, Wheat, Spring” value [2, 19]?
Its value is 40.

What about the “Plant response rating, Wheat, Spring” value [2, 20] of the same molecule?
Its value is 20.

And the “Barley, Spring plant response rating” value [3, 14]?
Its value is 0.

What about the “Plant response rating, Barley, Spring” value [3, 15] of the same molecule?
Its value is 15.

And the “Plant response rating, Barley, Spring” value [3, 16]?
The value was 20.

What about the “Plant response rating (scale of 0 to 100), Barley, Spring” value ([3]; Preemergence, 31 g ai/ha) of the same molecule?
The value was 0.

What about the “Plant response rating, Barley, Spring” value [3, 17] of the same molecule?
Its value is 0.

What about the “Plant response rating, Barley, Spring” value [3, 18] of the same molecule?
Its value is 0.

What about the “Plant response rating, Barley, Spring” value [3, 19] of the same molecule?
Its value is 0.

What about the “Plant response rating, Barley, Spring” value [3, 20] of the same molecule?
Its value is 10.

And the “Oilseed Rape plant response rating” value [4, 14]?
Its value is 45.

And the “Plant response rating, Oilseed Rape” value [4, 15]?
Its value is 75.

What about the “Plant response rating, Oilseed Rape” value [4, 16] of the same molecule?
Its value is 100.

What about the “Plant response rating (scale of 0 to 100), Oilseed Rape” value ([4]; Preemergence, 31 g ai/ha) of the same molecule?
The value was 20.

What about the “Plant response rating (scale of 0 to 100), Oilseed Rape” value ([4]; Preemergence, 62 g ai/ha) of the same molecule?
Its value is 45.

And the “Plant response rating, Oilseed Rape” value [4, 18]?
The value was 75.

What about the “Plant response rating, Oilseed Rape” value [4, 19] of the same molecule?
The value was 40.

What about the “Plant response rating, Oilseed Rape” value [4, 20] of the same molecule?
Its value is 70.

And the “Galium plant response rating” value [5, 14]?
Its value is 90.

What about the “Plant response rating, Galium” value [5, 15] of the same molecule?
Its value is 100.

What about the “Plant response rating, Galium” value [5, 16] of the same molecule?
Its value is 100.

And the “Plant response rating (scale of 0 to 100), Galium” value ([5]; Preemergence, 31 g ai/ha)?
Its value is 60.

What about the “Plant response rating (scale of 0 to 100), Galium” value ([5]; Preemergence, 62 g ai/ha) of the same molecule?
The value was 70.

What about the “Plant response rating, Galium” value [5, 18] of the same molecule?
The value was 95.

And the “Plant response rating, Galium” value [5, 19]?
Its value is 100.

What about the “Plant response rating, Galium” value [5, 20] of the same molecule?
Its value is 95.

And the “Canarygrass plant response rating” value [6, 14]?
Its value is 40.

And the “Plant response rating, Canarygrass” value [6, 15]?
Its value is 80.

And the “Plant response rating, Canarygrass” value [6, 16]?
Its value is 80.

What about the “Plant response rating (scale of 0 to 100), Canarygrass” value ([6]; Preemergence, 31 g ai/ha) of the same molecule?
Its value is 45.

And the “Plant response rating (scale of 0 to 100), Canarygrass” value ([6]; Preemergence, 62 g ai/ha)?
Its value is 80.

And the “Plant response rating, Canarygrass” value [6, 18]?
The value was 90.

What about the “Plant response rating, Canarygrass” value [6, 19] of the same molecule?
The value was 95.

And the “Plant response rating, Canarygrass” value [6, 20]?
The value was 50.

What about the “Bluegrass plant response rating” value [7, 14] of the same molecule?
Its value is 5.

What about the “Plant response rating, Bluegrass” value [7, 15] of the same molecule?
Its value is 25.

What about the “Plant response rating, Bluegrass” value [7, 16] of the same molecule?
The value was 35.

And the “Plant response rating (scale of 0 to 100), Bluegrass” value ([7]; Preemergence, 31 g ai/ha)?
The value was 10.

What about the “Plant response rating, Bluegrass” value [7, 17] of the same molecule?
Its value is 15.

What about the “Plant response rating, Bluegrass” value [7, 18] of the same molecule?
The value was 35.

What about the “Plant response rating, Bluegrass” value [7, 19] of the same molecule?
The value was 75.

And the “Plant response rating, Bluegrass” value [7, 20]?
Its value is 10.

And the “Foxtail, Green plant response rating” value [8, 14]?
Its value is 65.

And the “Plant response rating, Foxtail, Green” value [8, 15]?
Its value is 75.

And the “Plant response rating, Foxtail, Green” value [8, 16]?
Its value is 95.

And the “Plant response rating (scale of 0 to 100), Foxtail, Green” value ([8]; Preemergence, 31 g ai/ha)?
The value was 30.

What about the “Plant response rating (scale of 0 to 100), Foxtail, Green” value ([8]; Preemergence, 62 g ai/ha) of the same molecule?
Its value is 90.

What about the “Plant response rating, Foxtail, Green” value [8, 18] of the same molecule?
Its value is 100.

What about the “Plant response rating, Foxtail, Green” value [8, 19] of the same molecule?
Its value is 100.

What about the “Plant response rating, Foxtail, Green” value [8, 20] of the same molecule?
Its value is 70.

And the “Oat, Wild plant response rating” value [9, 14]?
The value was 85.

And the “Plant response rating, Oat, Wild” value [9, 15]?
Its value is 100.

And the “Plant response rating, Oat, Wild” value [9, 16]?
Its value is 100.

What about the “Plant response rating (scale of 0 to 100), Oat, Wild” value ([9]; Preemergence, 31 g ai/ha) of the same molecule?
Its value is 80.

And the “Plant response rating (scale of 0 to 100), Oat, Wild” value ([9]; Preemergence, 62 g ai/ha)?
The value was 80.

What about the “Plant response rating, Oat, Wild” value [9, 18] of the same molecule?
Its value is 80.

What about the “Plant response rating, Oat, Wild” value [9, 19] of the same molecule?
Its value is 95.

And the “Plant response rating, Oat, Wild” value [9, 20]?
The value was 95.

What about the “Pigweed plant response rating” value [10, 14] of the same molecule?
Its value is 95.

And the “Plant response rating, Pigweed” value [10, 15]?
Its value is 100.

And the “Plant response rating, Pigweed” value [10, 16]?
Its value is 100.

And the “Plant response rating (scale of 0 to 100), Pigweed” value ([10]; Preemergence, 31 g ai/ha)?
The value was 100.

And the “Plant response rating (scale of 0 to 100), Pigweed” value ([10]; Preemergence, 62 g ai/ha)?
Its value is 100.

And the “Plant response rating, Pigweed” value [10, 18]?
The value was 100.

What about the “Plant response rating, Pigweed” value [10, 19] of the same molecule?
Its value is 100.

What about the “Plant response rating, Pigweed” value [10, 20] of the same molecule?
Its value is 100.

And the “Field Poppy plant response rating” value [11, 14]?
The value was 20.

And the “Plant response rating, Field Poppy” value [11, 15]?
Its value is 65.

What about the “Plant response rating, Field Poppy” value [11, 16] of the same molecule?
Its value is 75.

And the “Plant response rating (scale of 0 to 100), Field Poppy” value ([11]; Preemergence, 31 g ai/ha)?
The value was 10.

And the “Plant response rating (scale of 0 to 100), Field Poppy” value ([11]; Preemergence, 62 g ai/ha)?
The value was 10.

And the “Plant response rating, Field Poppy” value [11, 18]?
The value was 100.

What about the “Plant response rating, Field Poppy” value [11, 19] of the same molecule?
The value was 100.

What about the “Plant response rating, Field Poppy” value [11, 20] of the same molecule?
Its value is 55.

What about the “Buckwheat, Wild plant response rating” value [12, 14] of the same molecule?
Its value is 90.

What about the “Plant response rating, Buckwheat, Wild” value [12, 15] of the same molecule?
Its value is 100.

What about the “Plant response rating, Buckwheat, Wild” value [12, 16] of the same molecule?
Its value is 100.

And the “Plant response rating (scale of 0 to 100), Buckwheat, Wild” value ([12]; Preemergence, 31 g ai/ha)?
The value was 0.

And the “Plant response rating, Buckwheat, Wild” value [12, 17]?
The value was 0.

What about the “Plant response rating, Buckwheat, Wild” value [12, 18] of the same molecule?
The value was 20.

And the “Plant response rating, Buckwheat, Wild” value [12, 19]?
Its value is 35.

What about the “Plant response rating, Buckwheat, Wild” value [12, 20] of the same molecule?
The value was 100.

And the “Mustard, Wild plant response rating” value [13, 14]?
The value was 70.

And the “Plant response rating, Mustard, Wild” value [13, 15]?
The value was 95.

What about the “Plant response rating, Mustard, Wild” value [13, 16] of the same molecule?
Its value is 100.

And the “Plant response rating (scale of 0 to 100), Mustard, Wild” value ([13]; Preemergence, 31 g ai/ha)?
Its value is 5.

What about the “Plant response rating (scale of 0 to 100), Mustard, Wild” value ([13]; Preemergence, 62 g ai/ha) of the same molecule?
Its value is 60.

And the “Plant response rating, Mustard, Wild” value [13, 18]?
The value was 95.

And the “Plant response rating, Mustard, Wild” value [13, 19]?
Its value is 85.

What about the “Plant response rating, Mustard, Wild” value [13, 20] of the same molecule?
The value was 75.
